From ChEMBL document CHEMBL5149986, “Spliceostatins and Derivatives: Chemical Syntheses and Biological Properties of Potent Splicing Inhibitors” (J Nat Prod, 2021)
Square brackets hold non-standard residues; d marks the D form. Peptide text beside a SMILES is read from it. * marks the point of attachment. Dolaproine = CO[C@@H]([C@@H]1CCCN1)[C@@H](C)C(=O)O; Dil = CC[C@H](C)[C@H](NC)[C@@H](CC(=O)O)OC; X1 = C[C@@H](N*)[C@@H](O)c1ccccc1; NMeV = CN[C@H](C(=O)O)C(C)C

Columns and labels:
MES-SA = assay: Cytotoxicity against human MES-SA cells assessed as inhibition in cell growth; assay type: functional, cell-based
[1] = Cytotoxicity against HEK293T cells assessed as inhibition in cell growth; assay type: toxicity, cell-based, HEK-293T; settings: human
MES-SA/Dx5 = assay: Cytotoxicity against human MES-SA/Dx5 cells assessed as inhibition in cell growth; assay type: functional, cell-based
[2] = Inhibition of pre-mRNA splicing in human HeLa nuclear extract in presence of ATP; assay type: cell-free

SMILES | IC50 (MES-SA) [nM] | IC50 [1] [nM] | IC50 (MES-SA/Dx5) [nM] | IC50 [2] [nM]
CC(/C=C/[C@H]1O[C@H](CC(=O)OC(C)(C)C)C[C@@]2(CO2)[C@@H]1O)=C\C[C@@H]1O[C@H](C)[C@H](NC(=O)/C=C\[C@H](C)OC(=O)C(C)C)C[C@@H]1C | 11.3 | 0.099 | 4.83 | –
CC(/C=C/[C@H]1O[C@H](C)C[C@@]2(CO2)[C@@H]1O)=C\C[C@@H]1O[C@H](C)[C@H](NC(=O)/C=C\[C@H](C)NC(=O)N2CCOCC2)C[C@@H]1C | 2.87 | 0.3 | 100 | –
CC(=O)O[C@@H](C)/C=C\C(=O)N[C@@H]1C[C@H](C)[C@H](C/C=C(C)/C=C/[C@H]2O[C@H](C)C[C@@]3(CO3)[C@@H]2O)O[C@@H]1C | 0.55 | 0.1 | 0.56 | –
CC(=O)O[C@@H](C)/C=C\C(=O)N[C@@H]1C[C@H](C)[C@H](C/C=C(C)/C=C/[C@H]2O[C@H](CC(=O)OC(C)(C)C)C[C@@](O)(CCl)[C@@H]2O)O[C@@H]1C | 14.9 | 0.033 | 5.16 | –
CC(=O)O[C@@H](C)/C=C\C(=O)N[C@@H]1C[C@H](C)[C@H](C/C=C(C)/C=C/[C@H]2O[C@H](CCN=[N+]=[N-])C[C@@]3(CO3)[C@@H]2O)O[C@@H]1C | 1.08 | 0.028 | 0.72 | –
CC(/C=C/[C@H]1O[C@H](C)C[C@@]2(CO2)[C@@H]1O)=C\C[C@@H]1O[C@H](C)[C@H](NC(=O)/C=C\[C@H](C)OC(=O)N(C)C)C[C@@H]1C | 0.04 | 0.003 | 0.14 | –
CC(/C=C/[C@H]1O[C@H](C)C[C@@]2(CO2)[C@@H]1O)=C\C[C@@H]1O[C@H](C)[C@H](NC(=O)/C=C\[C@H](C)NC(=O)C(C)C)C[C@@H]1C | 0.23 | 0.015 | 4.91 | –
CC(=O)O[C@@H](C)/C=C\C(=O)N[C@@H]1C[C@H](C)[C@H](C/C=C(C)/C=C/[C@H]2O[C@H](CCNC(=O)OC(C)(C)C)C[C@@]3(CO3)[C@@H]2O)O[C@@H]1C | 0.13 | 0.004 | 1.8 | –
CC[C@H](C)[C@@H]([C@@H](CC(=O)N1CCC[C@H]1[C@H](OC)[C@@H](C)C(=O)N[C@H](C)[C@@H](O)c1ccccc1)OC)N(C)C(=O)[C@@H](NC(=O)[C@@H](NC)C(C)C)C(C)C (H-[NMeV]V[Dil][Dolaproine]-X1) | 0.096 | 0.068 | 88.2 | –
CC(=O)O[C@@H](C)/C=C\C(=O)N[C@@H]1C[C@H](C)[C@H](C/C=C(C)/C=C/[C@H]2O[C@H](CC(=O)OC(C)(C)C)C[C@@]3(CO3)[C@@H]2O)O[C@@H]1C | 1.37 | 0.005 | 0.48 | –
CNC(=O)O[C@@H]1[C@@H](/C=C/C(C)=C/C[C@@H]2O[C@H](C)[C@H](NC(=O)/C=C\[C@H](C)OC(C)=O)C[C@@H]2C)O[C@H](OC)C[C@@]12CO2 | 76.7 | 10.1 | 76.1 | –
CO[C@]1(C)C[C@@]2(CO2)[C@H](O)[C@@H](/C=C/C(C)=C/C[C@@H]2O[C@H](C)[C@H](NC(=O)/C=C\[C@H](C)OC(C)=O)C[C@@H]2C)O1 | – | – | – | 10
CCOC(=O)/C=C/C[C@@H]1C[C@@]2(CO2)[C@H](O)[C@@H](/C=C/C(C)=C/C[C@@H]2O[C@H](C)[C@H](NC(=O)/C=C\[C@H](C)OC(=O)C(C)C)C[C@@H]2C)O1 | 2.96 | 0.09 | 2.73 | –
CO[C@@H]1C[C@@]2(CO2)[C@H](O)[C@@H](/C=C/C(C)=C/C[C@@H]2O[C@H](C)[C@H](NC(=O)/C=C\[C@H](C)OC(=O)N3CCCCC3)C[C@@H]2C)O1 | 3.71 | 0.11 | 3.35 | –
CO[C@@H]1C[C@@]2(CO2)[C@H](O)[C@@H](/C=C/C(C)=C/C[C@@H]2O[C@H](C)[C@H](NC(=O)/C=C\[C@H](C)OC(=O)N(C)C)C[C@@H]2C)O1 | 1.08 | 0.09 | 2.01 | –
CC(=O)O[C@@H](C)/C=C\C(=O)N[C@@H]1C[C@H](C)[C@H](C/C=C(C)/C=C/[C@H]2O[C@H](CC(=O)O)C[C@@](O)(CCl)[C@@H]2O)O[C@@H]1C [THAILANSTATIN B] | 856 | 194 | > 1000 | –
CC(/C=C/[C@H]1O[C@H](CC(=O)NCCC(=O)O)C[C@@]2(CO2)[C@@H]1O)=C\C[C@@H]1O[C@H](C)[C@H](NC(=O)/C=C\[C@H](C)OC(=O)C(C)C)C[C@@H]1C | 4.58 | 1.44 | 74 | –
CC(=O)O[C@@H](C)/C=C\C(=O)N[C@@H]1C[C@H](C)[C@H](C/C=C(C)/C=C/[C@H]2O[C@](C)(O)C[C@]3(CO3)[C@H]2O)O[C@@H]1C | – | – | – | 35000
CC(=O)O[C@@H](C)/C=C\C(=O)N[C@H]1C[C@H](C)[C@H](C/C=C(C)/C=C/[C@H]2O[C@](C)(O)C[C@]3(CO3)[C@H]2O)O[C@@H]1C | – | – | – | 20000
CO[C@]1(C)C[C@@]2(CO2)[C@H](O)[C@@H](/C=C/C(C)=C/C[C@@H]2O[C@H](C)[C@@H](NC(=O)/C=C\[C@H](C)OC(C)=O)C[C@@H]2C)O1 | – | – | – | 1000
CO[C@]1(C)C[C@]2(CO2)[C@@H](O)[C@@H](/C=C/C(C)=C/C[C@@H]2O[C@H](C)[C@H](NC(=O)/C=C\[C@H](C)OC(C)=O)C[C@@H]2C)O1 | – | – | – | 1500

SMILES | IC50 (MES-SA) [nM] | IC50 [1] [nM] | IC50 (MES-SA/Dx5) [nM] | IC50 [2] [nM]
CC(=O)O[C@H]1C(=O)[C@@]2(C)[C@H]([C@H](OC(=O)c3ccccc3)[C@]3(O)C[C@H](OC(=O)[C@H](O)[C@@H](NC(=O)c4ccccc4)c4ccccc4)C(C)=C1C3(C)C)[C@]1(OC(C)=O)CO[C@@H]1C[C@@H]2O [PACLITAXEL] | 2.47 | 1.76 | > 400 | –
CC(=O)O[C@@H](C)/C=C\C(=O)N[C@@H]1C[C@H](C)[C@H](C/C=C(C)/C=C/[C@H]2O[C@H](CC(=O)O)C[C@@]3(CO3)[C@@H]2O)O[C@@H]1C [THAILANSTATIN A] | 419 | 296 | > 400 | –
CO[C@@H]1C[C@@]2(CN2)[C@H](O)[C@@H](/C=C/C(C)=C/C[C@@H]2O[C@H](C)[C@H](NC(=O)/C=C\[C@H](C)OC(C)=O)C[C@@H]2C)O1 | 0.6 | 0.144 | 210 | –
CC(/C=C/[C@H]1O[C@H](C)C[C@@]2(CO2)[C@@H]1O)=C\C[C@@H]1O[C@H](C)[C@H](NC(=O)/C=C\[C@H](C)NC(=O)N2CCCCC2)C[C@@H]1C | 3.19 | 0.041 | 64 | –
CC(/C=C/[C@H]1O[C@H](C)C[C@@]2(CO2)[C@@H]1O)=C\C[C@@H]1O[C@H](C)[C@H](NC(=O)/C=C\[C@H](C)OC(=O)N2CCCCC2)C[C@@H]1C | 0.5 | 0.07 | 0.57 | –
CC(=O)O[C@@H](C)/C=C\C(=O)N[C@@H]1C[C@H](C)[C@H](C/C=C(C)/C=C/[C@H]2O[C@H](CC(C)(C)O)C[C@@]3(CO3)[C@@H]2O)O[C@@H]1C | 0.64 | 0.08 | 2.96 | –
COC(=O)C[C@@H]1C[C@@]2(CO2)[C@H](O)[C@@H](/C=C/C(C)=C/C[C@@H]2O[C@H](C)[C@H](NC(=O)/C=C\[C@H](C)NC(=O)C(C)C)C[C@@H]2C)O1 | 6.16 | 0.058 | 384 | –
CO[C@@H]1C[C@@]2(CO2)[C@H](O)[C@@H](/C=C/C(C)=C/C[C@@H]2O[C@H](C)[C@H](NC(=O)/C=C\[C@H](C)NC(=O)C(C)C)C[C@@H]2C)O1 | 6.16 | 0.058 | 384 | –
CC(/C=C/[C@H]1O[C@H](C)C[C@@]2(CO2)[C@@H]1O)=C\C[C@@H]1O[C@H](C)[C@H](NC(=O)/C=C\[C@H](C)NC(=O)N(C)C)C[C@@H]1C | 1.97 | 0.28 | > 16 | –
CC(=O)O[C@@H](C)/C=C\C(=O)N[C@@H]1C[C@H](C)[C@H](C/C=C(C)/C=C/[C@H]2O[C@H](CCC#N)C[C@@]3(CO3)[C@@H]2O)O[C@@H]1C | 0.82 | 0.099 | 2.6 | –
CC(/C=C/[C@H]1O[C@H](C)C[C@@]2(CO2)[C@@H]1O)=C\C[C@@H]1O[C@H](C)[C@H](NC(=O)/C=C\[C@H](C)OC(=O)N2CCOCC2)C[C@@H]1C | 0.38 | 0.08 | 1.48 | –
CC(/C=C/[C@H]1O[C@H](CC(=O)OC(C)(C)C)C[C@@](O)(CCl)[C@@H]1O)=C\C[C@@H]1O[C@H](C)[C@H](NC(=O)/C=C\[C@H](C)OC(=O)C(C)C)C[C@@H]1C | 264 | 0.13 | 10.3 | –
CC(/C=C/[C@H]1O[C@H](CC(=O)OC2CC2)C[C@@]2(CO2)[C@@H]1O)=C\C[C@@H]1O[C@H](C)[C@H](NC(=O)/C=C\[C@H](C)OC(=O)C(C)C)C[C@@H]1C | 2.15 | 0.218 | 16.1 | –
CO[C@@H]1C[C@@]2(CO2)[C@H](OC(C)=O)[C@@H](/C=C/C(C)=C/C[C@@H]2O[C@H](C)[C@H](NC(=O)/C=C\[C@H](C)OC(C)=O)C[C@@H]2C)O1 | 1.76 | 0.031 | 1.98 | –
CC(/C=C/[C@H]1O[C@H](CC(=O)O)C[C@@](O)(CCl)[C@@H]1O)=C\C[C@@H]1O[C@H](C)[C@H](NC(=O)/C=C\[C@H](C)OC(=O)C(C)C)C[C@@H]1C [THAILANSTATIN C] | 137 | 64.7 | 298 | –
CC(=O)O[C@@H](C)/C=C\C(=O)N[C@@H]1C[C@H](C)[C@H](C/C=C(C)/C=C/[C@H]2O[C@H](CCO)C[C@@]3(CO3)[C@@H]2O)O[C@@H]1C | 0.072 | 0.007 | 3.21 | –
C=C1C[C@@H](CC(=O)O)O[C@H](/C=C/C(C)=C/C[C@@H]2O[C@H](C)[C@H](NC(=O)/C=C\[C@H](C)OC(C)=O)C[C@@H]2C)[C@H]1O | > 1000 | > 1000 | > 1000 | –
CC(/C=C/[C@H]1O[C@H](C)C[C@@]2(CO2)[C@@H]1O)=C\C[C@@H]1O[C@H](C)[C@H](NC(=O)/C=C\[C@H](C)OC(=O)N2CCN(C(=O)OC(C)(C)C)CC2)C[C@@H]1C | 2.87 | 0.018 | 7.01 | –
CO[C@@H]1C[C@@]2(CO2)[C@H](O)[C@@H](/C=C/C(C)=C/C[C@@H]2O[C@H](C)[C@H](NC(=O)/C=C\[C@H](C)OC(=O)N(C)CCO)C[C@@H]2C)O1 | 0.63 | 0.009 | 11 | –
CO[C@@H]1C[C@@]2(CO2)[C@H](O)[C@@H](/C=C/C(C)=C/C[C@@H]2O[C@H](C)[C@H](NC(=O)/C=C\[C@H](C)OC(=O)N3CCOCC3)C[C@@H]2C)O1 | 0.49 | 0.006 | 13.8 | –
